The text below walks through data of BindingDB's records for doi:10.1021/jm801507v (AstraZeneca, 2009).

SMILES strings stand for the structures.

Experiment [1] addresses T1, Diacylglycerol O-acyltransferase 1 (Homo sapiens, UniProt O75907).
T1 sequence (O75907 whole entry): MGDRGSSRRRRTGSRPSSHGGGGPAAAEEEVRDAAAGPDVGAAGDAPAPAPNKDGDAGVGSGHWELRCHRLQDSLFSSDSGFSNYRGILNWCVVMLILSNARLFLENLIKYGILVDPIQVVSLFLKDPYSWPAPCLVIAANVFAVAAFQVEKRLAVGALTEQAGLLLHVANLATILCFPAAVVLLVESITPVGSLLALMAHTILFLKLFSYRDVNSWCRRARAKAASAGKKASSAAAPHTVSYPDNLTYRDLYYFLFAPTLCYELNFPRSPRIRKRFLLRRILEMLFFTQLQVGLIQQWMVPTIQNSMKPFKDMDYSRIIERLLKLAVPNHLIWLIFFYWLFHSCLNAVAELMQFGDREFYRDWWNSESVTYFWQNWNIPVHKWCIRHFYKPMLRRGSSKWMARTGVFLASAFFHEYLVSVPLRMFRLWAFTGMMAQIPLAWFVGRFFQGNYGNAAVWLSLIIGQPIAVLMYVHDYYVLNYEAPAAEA
As to the kind of experiment: DGAT Enzyme Inhibition Assay. The following applies: pH 7.4; 22 °C. The protocol:
The assay mixture contains test compound, membrane protein, and 1,2 dioleoyl-sn-glycerol in a 96-deep well plate. The reaction was started by adding substrate [14C]oleoyl coenzyme A and incubated. After the reaction was stopped, radioactive triolein product was separated into the organic heptane phase. DGAT activity was quantified by counting aliquots of the upper heptane layer by liquid scintillography.

The target of experiment [2] is T2, Sterol O-acyltransferase 1 (Homo sapiens, UniProt P35610).
T2 sequence (P35610 whole entry): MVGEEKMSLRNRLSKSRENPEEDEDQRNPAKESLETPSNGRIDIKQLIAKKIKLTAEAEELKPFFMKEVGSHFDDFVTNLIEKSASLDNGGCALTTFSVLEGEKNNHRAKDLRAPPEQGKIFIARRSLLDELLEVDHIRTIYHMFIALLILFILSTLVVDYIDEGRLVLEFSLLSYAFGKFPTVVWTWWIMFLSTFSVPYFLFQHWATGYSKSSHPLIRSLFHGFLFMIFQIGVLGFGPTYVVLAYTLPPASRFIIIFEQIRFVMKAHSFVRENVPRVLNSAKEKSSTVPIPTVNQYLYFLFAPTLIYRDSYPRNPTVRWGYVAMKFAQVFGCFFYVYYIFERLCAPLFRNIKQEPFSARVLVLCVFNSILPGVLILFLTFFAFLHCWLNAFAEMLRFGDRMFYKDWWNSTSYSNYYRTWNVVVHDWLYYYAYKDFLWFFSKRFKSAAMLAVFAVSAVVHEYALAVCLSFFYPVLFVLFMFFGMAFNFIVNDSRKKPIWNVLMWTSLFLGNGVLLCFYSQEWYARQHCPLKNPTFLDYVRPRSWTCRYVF
As to the kind of experiment: ACAT-1 Enzyme Inhibition Assay. Particulars: pH 7.4; 37 °C. The protocol:
The reaction was started by adding substrate [14C]oleoyl coenzyme A and incubated. After the reaction was stopped, radioactive cholesteryl oleate product was separated into the organic heptane phase. ACAT-1 activity was quantified by counting aliquots of the upper heptane layer by liquid scintillography.

Consider `CC1(C)Oc2ncnc(N)c2N=C1c1ccc(C23CCCC(CC(=O)O)(CC2)CC3)cc1` [2-[5-(4-{4-amino-7,7-dimethyl-7H-pyrimido[4,5-b][1,4]oxazin-6-yl}phenyl)bicyclo[3.2.2]nonan-1-yl]acetic acid], for which the results for the IC50 in experiment [1] and in experiment [2] were 0.069 µM and 28 µM, respectively.
